Among the data in publication PMC6893741, “Docosahexaenoic Acid Inhibits PTP1B Phosphatase and the Viability of MCF-7 Breast Cancer Cells” (Nutrients, 2019) are IC50 values, retold here.

This test deals with T1, Protein tyrosine phosphatase 1B (PTP1B) (Homo sapiens, UniProt P18031).
T1 construct: gene PTPN1; recombinant PTP1B
T1 sequence (P18031 1-435): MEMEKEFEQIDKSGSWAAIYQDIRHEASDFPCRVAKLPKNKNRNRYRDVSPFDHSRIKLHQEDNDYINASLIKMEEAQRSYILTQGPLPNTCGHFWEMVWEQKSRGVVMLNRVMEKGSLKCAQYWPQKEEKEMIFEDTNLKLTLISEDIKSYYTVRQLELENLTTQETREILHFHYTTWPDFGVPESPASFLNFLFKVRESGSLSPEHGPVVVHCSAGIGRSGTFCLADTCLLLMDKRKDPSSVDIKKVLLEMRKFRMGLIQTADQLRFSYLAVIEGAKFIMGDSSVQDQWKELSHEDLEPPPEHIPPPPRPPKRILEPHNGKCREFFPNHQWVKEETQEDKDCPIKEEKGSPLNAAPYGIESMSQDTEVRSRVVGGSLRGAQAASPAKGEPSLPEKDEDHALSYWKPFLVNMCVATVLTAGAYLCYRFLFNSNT
The experiment in a line: recombinant PTP1B activity assay with pNPP, absorbance at […] nm, […] min incubation. It is filed as biochemical.

A word on the IC50: it is the concentration at which inhibition is half-maximal. As to `CC/C=C\C/C=C\C/C=C\C/C=C\C/C=C\C/C=C\CCC(=O)O` [DHA, docosahexaenoic acid], the IC50 was found to be 174 ± 25.5 µM.
